Literature values as cited in patent publication US6576223B2, “Insect repellent” (Karl Engelhard Fabrik Pharm Praparate GmbH & Co. KG., priority 1997, dated 2003).

Columns and labels:
[1] = concentrations of DEET exceeding 30%; monograph Diethyltoluamid, Bundesanzeiger No. 137

**Q.** For CCN(CC)C(=O)c1cccc(C)c1 [DEET, N,N-diethyl-m-toluamide], which period of effectiveness (insects; DEET as alcohol solution applied to the skin, known agents) is on record?
**A.** about 5 hours

**Q.** What about the side effects [1] of the same compound?
**A.** blistering, ulceration, and necroses can occur

**Q.** With polyethylene glycol 400 [PEG-400] as the compound, how does the “repellent effect of the adjuvant itself” value (insects; adjuvant alone, EP 0 090 288) read?
**A.** no repellent effect
